Measured values from US6355799B1, “Substituted benzene compounds, process for their preparation, and herbicidal and defoliant compositions containing them” (ISK Americas Incorporated, priority 1997, dated 2002).

Assays:
Type in all cases: in vivo
[1] = system: large crabgrass (Digitaria sanguinalis, DIGSA); assay: Post-emerge test, greenhouse herbicide activity screening; conditions: rating scale 0-100 (0 no damage, 100 complete death), 14 days after application
Procedure, shortened: (§1)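 Herbicidal damage is scored 0 (none) to 100 (complete plant death) two weeks after a simulated field spray. Rates span 15–1000 g ai/ha, delivered in acetone at 187 l/ha. For post-emergence treatments, plants have 2–3 leaves and the spray carries 0.25% v/v non-ionic surfactant.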

[2] = system: velvetleaf (Abutilon theophrasti, ABUTH); assay: as above; conditions: rating scale 0-100 (0 no damage, 100 complete death), 14 days after application
Procedure, shortened: as §1

[3] = system: common ragweed (Ambrosia artemisizfolia L., AMBEL); assay: as above; conditions: rating scale 0-100 (0 no damage, 100 complete death), 14 days after application
Procedure, shortened: as §1

[4] = system: lambsquarters (Chenopodium album, CHEAL); assay: as above; conditions: rating scale 0-100 (0 no damage, 100 complete death), 14 days after application
Procedure, shortened: as §1

[5] = system: barnyardgrass (Echinochloa crus-galli, ECHCG); assay: as above; conditions: rating scale 0-100 (0 no damage, 100 complete death), 14 days after application
Procedure, shortened: as §1

[6] = system: redroot pigweed (Amaranthus retroflexus, AMARE); assay: as above; conditions: rating scale 0-100 (0 no damage, 100 complete death), 14 days after application
Procedure, shortened: as §1

[7] = system: green foxtail (Setaria viridis, SETVI); assay: as above; conditions: rating scale 0-100 (0 no damage, 100 complete death), 14 days after application
Procedure, shortened: as §1

[8] = system: ivyleaf morningglory (Ipomoea hederacea, IPOHE); assay: as above; conditions: rating scale 0-100 (0 no damage, 100 complete death), 14 days after application
Procedure, shortened: as §1

[9] = system: johnsongrass (Sorghum halepense, SORHA); assay: as above; conditions: rating scale 0-100 (0 no damage, 100 complete death), 14 days after application
Procedure, shortened: as §1

[10] = system: sicklepod (Cassia obtusifolia, CASOB); assay: as above; conditions: rating scale 0-100 (0 no damage, 100 complete death), 14 days after application
Procedure, shortened: as §1

[11] = system: large crabgrass (Digitaria sanguinalis, DIGSA); assay: Pre-emerge test, greenhouse herbicide activity screening; conditions: rating scale 0-100, 14 days after application
Procedure, shortened: (§2)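 Sandy loam pots; pre-emerge: sown 1 d pre-spray, surface-watered after, then bottom-watered. Post-emerge: sown 8–21 d before, 2–3 leaf stage, + 0.25% v/v NIS, bottom-watered. Acetone, 187 l/ha track spray, 15–1000 g ai/ha. 0–100 injury score, day 14.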

[12] = system: velvetleaf (Abutilon theophrasti, ABUTH); assay: as above; conditions: rating scale 0-100, 14 days after application
Procedure, shortened: as §2

[13] = system: lambsquarters (Chenopodium album, CHEAL); assay: as above; conditions: rating scale 0-100, 14 days after application
Procedure, shortened: as §2

[14] = system: barnyardgrass (Echinochloa crus-galli, ECHCG); assay: as above; conditions: rating scale 0-100, 14 days after application
Procedure, shortened: as §2

[15] = system: green foxtail (Setaria viridis, SETVI); assay: as above; conditions: rating scale 0-100, 14 days after application
Procedure, shortened: as §2

[16] = system: ivyleaf morningglory (Ipomoea hederacea, IPOHE); assay: as above; conditions: rating scale 0-100, 14 days after application
Procedure, shortened: as §2

[17] = system: johnsongrass (Sorghum halepense, SORHA); assay: as above; conditions: rating scale 0-100, 14 days after application
Procedure, shortened: as §2

[18] = system: sicklepod (Cassia obtusifolia, CASOB); assay: as above; conditions: rating scale 0-100, 14 days after application
Procedure, shortened: as §2

[19] = system: upland rice (Oryza sp., var. Tebonnet, RICE); assay: Pre-emerge test, crop safety; conditions: rating scale 0-100, 14 days after application
Procedure, shortened: (§3)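 Fourteen days after spraying, crop and weed injury was graded visually from 0, no effect, to 100, every plant dead. Test substances were dissolved in acetone and applied at 15–1000 g ai/ha with a flat-fan nozzle. Application was either pre-emergence, one day after sowing, or post-emergence at the 2–3 leaf stage.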

[20] = system: field corn (Zea mays L., var. Dekalb 535, CORN); assay: Pre-emerge test, crop safety; conditions: rating scale 0-100, 14 days after application
Procedure, shortened: as §3

[21] = system: upland rice (Oryza sp., var. Tebonnet, RICE); assay: Post-emerge test, crop safety; conditions: rating scale 0-100 (0 no damage, 100 complete death), 14 days after application
Procedure, shortened: as §2

[22] = system: field corn (Zea mays L., var. Dekalb 535, CORN); assay: Post-emerge test, crop safety; conditions: rating scale 0-100 (0 no damage, 100 complete death), 14 days after application
Procedure, shortened: as §2

[23] = system: redroot pigweed (Amaranthus retroflexus, AMARE); assay: Pre-emerge test, greenhouse herbicide activity screening; conditions: rating scale 0-100, 14 days after application
Procedure, shortened: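 Plants grown in 10 cm pots of sandy loam mix received acetone-dissolved compounds through a moving flat-fan nozzle. Doses ranged from 15 to 1000 g ai/ha. Pre-emerge pots were seeded one day earlier, post-emerge pots 8–21 days earlier. Fourteen days on, each pot was graded 0–100 for damage.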

COc1c(Cl)cc(F)c(-n2c(=O)cc(C(F)(F)F)n(C)c2=O)c1CC(Cl)C(=O)OCC(F)(F)C(F)(F)C(F)(F)F (single isomer, unassigned) [14-23]
Post-emerge Herbicidal Activity, phytotoxicity rating DIGSA ([1]; Rate 63 g ai/ha): 50
Post-emerge Herbicidal Activity, phytotoxicity rating DIGSA ([1]; Rate 250 g ai/ha): 95
Post-emerge Herbicidal Activity, phytotoxicity rating ABUTH ([2]; Rate 63 g ai/ha): 50
Post-emerge Herbicidal Activity, phytotoxicity rating ABUTH ([2]; Rate 250 g ai/ha): 90
Post-emerge Herbicidal Activity, phytotoxicity rating AMBEL ([3]; Rate 63 g ai/ha): 50
Post-emerge Herbicidal Activity, phytotoxicity rating AMBEL ([3]; Rate 250 g ai/ha): 40
Post-emerge Herbicidal Activity, phytotoxicity rating CHEAL ([4]; Rate 63 g ai/ha): 50
Post-emerge Herbicidal Activity, phytotoxicity rating CHEAL ([4]; Rate 250 g ai/ha): 80
Post-emerge Herbicidal Activity, phytotoxicity rating ECHCG ([5]; Rate 63 g ai/ha): 100
Post-emerge Herbicidal Activity, phytotoxicity rating ECHCG ([5]; Rate 250 g ai/ha): 100
Post-emerge Herbicidal Activity, phytotoxicity rating AMARE ([6]; Rate 63 g ai/ha): 50
Post-emerge Herbicidal Activity, phytotoxicity rating AMARE ([6]; Rate 250 g ai/ha): 100
Post-emerge Herbicidal Activity, phytotoxicity rating SETVI ([7]; Rate 63 g ai/ha): 60
Post-emerge Herbicidal Activity, phytotoxicity rating SETVI ([7]; Rate 250 g ai/ha): 70
Post-emerge Herbicidal Activity, phytotoxicity rating IPOHE ([8]; Rate 63 g ai/ha): 80
Post-emerge Herbicidal Activity, phytotoxicity rating IPOHE ([8]; Rate 250 g ai/ha): 95
Post-emerge Herbicidal Activity, phytotoxicity rating SORHA ([9]; Rate 63 g ai/ha): 40
Post-emerge Herbicidal Activity, phytotoxicity rating SORHA ([9]; Rate 250 g ai/ha): 50
Post-emerge Herbicidal Activity, phytotoxicity rating CASOB ([10]; Rate 63 g ai/ha): 20
Post-emerge Herbicidal Activity, phytotoxicity rating CASOB ([10]; Rate 250 g ai/ha): 70
Pre-emerge herbicidal activity, phytotoxicity rating DIGSA ([11]; 63 g ai/ha): 30
Pre-emerge herbicidal activity, phytotoxicity rating DIGSA ([11]; 250 g ai/ha): 90
Pre-emerge herbicidal activity, phytotoxicity rating ABUTH ([12]; 63 g ai/ha): 0
Pre-emerge herbicidal activity, phytotoxicity rating ABUTH ([12]; 250 g ai/ha): 80
Pre-emerge herbicidal activity, phytotoxicity rating CHEAL ([13]; 63 g ai/ha): 0
Pre-emerge herbicidal activity, phytotoxicity rating CHEAL ([13]; 250 g ai/ha): 90
Pre-emerge herbicidal activity, phytotoxicity rating ECHCG ([14]; 63 g ai/ha): 10
Pre-emerge herbicidal activity, phytotoxicity rating ECHCG ([14]; 250 g ai/ha): 30
Pre-emerge herbicidal activity, phytotoxicity rating SETVI ([15]; 63 g ai/ha): 0
Pre-emerge herbicidal activity, phytotoxicity rating SETVI ([15]; 250 g ai/ha): 40
Pre-emerge herbicidal activity, phytotoxicity rating IPOHE ([16]; 63 g ai/ha): 0
Pre-emerge herbicidal activity, phytotoxicity rating IPOHE ([16]; 250 g ai/ha): 30
Pre-emerge herbicidal activity, phytotoxicity rating SORHA ([17]; 63 g ai/ha): 0
Pre-emerge herbicidal activity, phytotoxicity rating SORHA ([17]; 250 g ai/ha): 80
Pre-emerge herbicidal activity, phytotoxicity rating CASOB ([18]; 63 g ai/ha): 0
Pre-emerge herbicidal activity, phytotoxicity rating CASOB ([18]; 250 g ai/ha): 0
Pre-emerge phytotoxicity rating, crop damage RICE ([19]; 63 g ai/ha): 0
Pre-emerge phytotoxicity rating, crop damage RICE ([19]; 250 g ai/ha): 0
Pre-emerge phytotoxicity rating, crop damage CORN ([20]; 63 g ai/ha): 0
Pre-emerge phytotoxicity rating, crop damage CORN ([20]; 250 g ai/ha): 0
Post-emerge phytotoxicity rating RICE (crop damage) ([21]; Rate 63 g ai/ha): 0
Post-emerge phytotoxicity rating RICE (crop damage) ([21]; Rate 250 g ai/ha): 20
Post-emerge phytotoxicity rating CORN (crop damage) ([22]; Rate 63 g ai/ha): 0
Post-emerge phytotoxicity rating CORN (crop damage) ([22]; Rate 250 g ai/ha): 40
Pre-emerge herbicidal activity, phytotoxicity rating AMARE ([23]; 63 g ai/ha): 95
Pre-emerge herbicidal activity, phytotoxicity rating AMARE ([23]; 250 g ai/ha): 100

COc1c(Cl)cc(F)c(-n2c(=O)cc(C(F)(F)F)n(C)c2=O)c1CC(Cl)C(=O)OCC(F)(F)C(F)(F)C(F)(F)F (single isomer, unassigned) [14-24]
Post-emerge Herbicidal Activity, phytotoxicity rating DIGSA ([1]; Rate 63 g ai/ha): 95
Post-emerge Herbicidal Activity, phytotoxicity rating DIGSA ([1]; Rate 250 g ai/ha): 100
Post-emerge Herbicidal Activity, phytotoxicity rating ABUTH ([2]; Rate 63 g ai/ha): 70
Post-emerge Herbicidal Activity, phytotoxicity rating ABUTH ([2]; Rate 250 g ai/ha): 100
Post-emerge Herbicidal Activity, phytotoxicity rating AMBEL ([3]; Rate 63 g ai/ha): 50
Post-emerge Herbicidal Activity, phytotoxicity rating AMBEL ([3]; Rate 250 g ai/ha): 50
Post-emerge Herbicidal Activity, phytotoxicity rating CHEAL ([4]; Rate 63 g ai/ha): 80
Post-emerge Herbicidal Activity, phytotoxicity rating CHEAL ([4]; Rate 250 g ai/ha): 90
Post-emerge Herbicidal Activity, phytotoxicity rating ECHCG ([5]; Rate 63 g ai/ha): 100
Post-emerge Herbicidal Activity, phytotoxicity rating ECHCG ([5]; Rate 250 g ai/ha): 100
Post-emerge Herbicidal Activity, phytotoxicity rating AMARE ([6]; Rate 63 g ai/ha): 40
Post-emerge Herbicidal Activity, phytotoxicity rating AMARE ([6]; Rate 250 g ai/ha): 90
Post-emerge Herbicidal Activity, phytotoxicity rating SETVI ([7]; Rate 63 g ai/ha): 0
Post-emerge Herbicidal Activity, phytotoxicity rating SETVI ([7]; Rate 250 g ai/ha): 50
Post-emerge Herbicidal Activity, phytotoxicity rating IPOHE ([8]; Rate 63 g ai/ha): 20
Post-emerge Herbicidal Activity, phytotoxicity rating IPOHE ([8]; Rate 250 g ai/ha): 40
Post-emerge Herbicidal Activity, phytotoxicity rating SORHA ([9]; Rate 63 g ai/ha): 0
Post-emerge Herbicidal Activity, phytotoxicity rating SORHA ([9]; Rate 250 g ai/ha): 50
Post-emerge Herbicidal Activity, phytotoxicity rating CASOB ([10]; Rate 63 g ai/ha): 0
Post-emerge Herbicidal Activity, phytotoxicity rating CASOB ([10]; Rate 250 g ai/ha): 0
Pre-emerge herbicidal activity, phytotoxicity rating DIGSA ([11]; 63 g ai/ha): 20
Pre-emerge herbicidal activity, phytotoxicity rating DIGSA ([11]; 250 g ai/ha): 80
Pre-emerge herbicidal activity, phytotoxicity rating ABUTH ([12]; 63 g ai/ha): 0
Pre-emerge herbicidal activity, phytotoxicity rating ABUTH ([12]; 250 g ai/ha): 80
Pre-emerge herbicidal activity, phytotoxicity rating CHEAL ([13]; 63 g ai/ha): 0
Pre-emerge herbicidal activity, phytotoxicity rating CHEAL ([13]; 250 g ai/ha): 50
Pre-emerge herbicidal activity, phytotoxicity rating ECHCG ([14]; 63 g ai/ha): 0
Pre-emerge herbicidal activity, phytotoxicity rating ECHCG ([14]; 250 g ai/ha): 0
Pre-emerge herbicidal activity, phytotoxicity rating SETVI ([15]; 63 g ai/ha): 0
Pre-emerge herbicidal activity, phytotoxicity rating SETVI ([15]; 250 g ai/ha): 0
Pre-emerge herbicidal activity, phytotoxicity rating IPOHE ([16]; 63 g ai/ha): 0
Pre-emerge herbicidal activity, phytotoxicity rating IPOHE ([16]; 250 g ai/ha): 0
Pre-emerge herbicidal activity, phytotoxicity rating SORHA ([17]; 63 g ai/ha): 0
Pre-emerge herbicidal activity, phytotoxicity rating SORHA ([17]; 250 g ai/ha): 0
Pre-emerge herbicidal activity, phytotoxicity rating CASOB ([18]; 63 g ai/ha): 0
Pre-emerge herbicidal activity, phytotoxicity rating CASOB ([18]; 250 g ai/ha): 30
Pre-emerge phytotoxicity rating, crop damage RICE ([19]; 63 g ai/ha): 0
Pre-emerge phytotoxicity rating, crop damage RICE ([19]; 250 g ai/ha): 20
Pre-emerge phytotoxicity rating, crop damage CORN ([20]; 63 g ai/ha): 0
Pre-emerge phytotoxicity rating, crop damage CORN ([20]; 250 g ai/ha): 0
Post-emerge phytotoxicity rating RICE (crop damage) ([21]; Rate 63 g ai/ha): 10
Post-emerge phytotoxicity rating RICE (crop damage) ([21]; Rate 250 g ai/ha): 50
Post-emerge phytotoxicity rating CORN (crop damage) ([22]; Rate 63 g ai/ha): 10
Post-emerge phytotoxicity rating CORN (crop damage) ([22]; Rate 250 g ai/ha): 20
Pre-emerge herbicidal activity, phytotoxicity rating AMARE ([23]; 63 g ai/ha): 50
Pre-emerge herbicidal activity, phytotoxicity rating AMARE ([23]; 250 g ai/ha): 100
